Reference: US20250188080A1, “IMIDAZOLONYLQUINOLINE COMPOUNDS AND THERAPEUTIC USES THEREOF” (Merck Patent GmbH, priority 2019, published 2025)
“Also recorded” adds a separate entry of the source.

Experiments:
[1] = Microsomal stability (intrinsic clearance), human; format: in vitro ADME; parameters: microsomal CLint: dose or concentration left out as unconfirmed; settings: for microsomal CLint: liver microsomes, pH 7.4
From the text: (§1) A microsomal stability assay is used to measure in vitro clearance (Clint). The assay involves measuring the rate of disappearance of a compound due to its intrinsic attitude to be metabolized (“intrinsic” meaning that the disappearance is not affected by other properties like permeability, binding etc. that play a role when quantifying in vivo clearance). The microsomal stability (intrinsic clearance, Clint) and, thus, metabolic stability is generally given as μl/min/mg protein. It can be visualized as the volume of solution that 1 mg of microsomes is able to clear of the compound in one minute.
(§2) A Tecan Genesis workstation (RSP 150/8) was used for to perform the microsomal incubations. Analysis was carried out using a Waters ACQUITY UPLC system coupled to an ABSciex API3000 mass spectrometer. Data analysis was performed using Assay Explorer (Symyx).
(§3) • Potassium phosphate buffer: 0.05 M potassium phosphate buffer pH 7.4 containing 1 mM MgCl2 • NADPH (nicotinamide adenine dinucleotide phosphate): 22.5 mg NADPH-Na4 in 1.8 ml potassium phosphate buffer • Acetonitrile: 50 Vol % acetonitrile (1 volume acetonitrile, 1 volume water) • DMSO: 20 Vol % DMSO in water • Stock solution of 20 mg/ml human or mouse liver microsomes (protein)/ml in phosphate buffer • Stock solution of 10 mM compound in 100% DMSO
(§4) Dilution of test compounds was done in 2 steps starting from a 10 mM stock solution of the respective compound in 100% DMSO. First 4 μl stock solution was added to 196 μl of 20 Vol % DMSO. In a second step, 10 μl of the first dilution were added to 1590 μl potassium phosphate buffer to achieve a final concentration of 1.25 μM in the final compound dilution. Thus, the amount of organic solvent in the assay was kept to a minimum (<1%).
(§5) The human or mouse liver microsome (protein) solution to be used in the assay was prepared by mixing 750 μl stock solution (20 mg/ml) and 2250 μl potassium phosphate buffer to a final concentration of 5 mg/ml.
(§6) Incubation was carried out on a 96 deep well incubation plate. […]

[2] = Microsomal stability (intrinsic clearance), rat; format: in vitro ADME; settings: for microsomal CLint: liver microsomes
From the text: A microsomal stability assay is used to measure in vitro clearance (Clint). The assay involves measuring the rate of disappearance of a compound due to its intrinsic attitude to be metabolized (“intrinsic” meaning that the disappearance is not affected by other properties like permeability, binding etc. that play a role when quantifying in vivo clearance). The microsomal stability (intrinsic clearance, Clint) and, thus, metabolic stability is generally given as μl/min/mg protein. It can be visualized as the volume of solution that 1 mg of microsomes is able to clear of the compound in one minute. The microsomal/metabolic stability of each compound was determined by measurement of the change in LC-MS/MS peak area over time. Data are fitted according to a log linear model in line with Michaelis/Menten. The Clint value is calculated from the slope (k) of the linear log transformed concentration per time plot divided by the amount of microsomes (0.5 mg/ml): Clint (μl/min/mg protein)=k*1000/protein concentration. Assay Explorer software was used to automatically calculate the slope k of the decline.

[3] = Microsomal stability (intrinsic clearance), mouse; format: in vitro ADME; parameters: microsomal CLint: dose or concentration left out as unconfirmed; settings: for CLint (mouse): mouse microsomes
From the text: as §1, §2, §3, §4, §5, §6

[4] = biological target: T1, human phosphodiesterase-4A1A (Homo sapiens, UniProt P27815); assay: PDE4A1A assay (Cerep); format: biochemical
T1 construct: purchased Cerep 4074; host or cells: Sf9 cells
Procedure: A commercially available assay of Cerep was used (Catalog ref. 4074; SOP no 1C1056), which is designed to evaluate the effects of compounds on the activity of the human phosphodiesterase-4A1A quantified by measuring the formation of 5′AMP from cAMP using a human recombinant enzyme expressed in Sf9 cells.
The test compound, reference compound or water (control) are added to a buffer containing 40 mM Tris/HCl (pH 7.4) and 8 mM MgCl2, 450 nM cAMP and 0.25 μCi [^3H]cAMP.
Thereafter, the reaction is initiated by addition of the enzyme (about 10 U) and the mixture is incubated for 20 min at 22° C.
For basal control measurements, the enzyme is omitted from the reaction mixture.
Following incubation SPA beads are added.
After 30 min at 22° C. under shaking, the amount of [^3H]5′AMP is quantified with a scintillation counter (Topcount, Packard).
The results are expressed as a percent inhibition of the control enzyme activity.
The standard inhibitory reference compound is Ro 20-1724, which is tested in each experiment at several concentrations to obtain an inhibition curve from which its IC50 value is calculated.

[5] = system: xenografts of the human squamous cell head and neck model FaDu; assay: FaDu SCCHN tumor model, combination with irradiation; format: in vivo, NMRI nu/nu mice; settings: oral 10 or 25 mg/kg 30 min before each IR fraction; 6×5 days, 2 Gy
Procedure: One of the control groups was treated with vehicle only. The other control group was treated with IR only at 30 fractions IR of 2 Gy in a 5 days on/2 days off schedule and over a period of 6 weeks.

T1 sequence (P27815 1-647 isoform P27815-4): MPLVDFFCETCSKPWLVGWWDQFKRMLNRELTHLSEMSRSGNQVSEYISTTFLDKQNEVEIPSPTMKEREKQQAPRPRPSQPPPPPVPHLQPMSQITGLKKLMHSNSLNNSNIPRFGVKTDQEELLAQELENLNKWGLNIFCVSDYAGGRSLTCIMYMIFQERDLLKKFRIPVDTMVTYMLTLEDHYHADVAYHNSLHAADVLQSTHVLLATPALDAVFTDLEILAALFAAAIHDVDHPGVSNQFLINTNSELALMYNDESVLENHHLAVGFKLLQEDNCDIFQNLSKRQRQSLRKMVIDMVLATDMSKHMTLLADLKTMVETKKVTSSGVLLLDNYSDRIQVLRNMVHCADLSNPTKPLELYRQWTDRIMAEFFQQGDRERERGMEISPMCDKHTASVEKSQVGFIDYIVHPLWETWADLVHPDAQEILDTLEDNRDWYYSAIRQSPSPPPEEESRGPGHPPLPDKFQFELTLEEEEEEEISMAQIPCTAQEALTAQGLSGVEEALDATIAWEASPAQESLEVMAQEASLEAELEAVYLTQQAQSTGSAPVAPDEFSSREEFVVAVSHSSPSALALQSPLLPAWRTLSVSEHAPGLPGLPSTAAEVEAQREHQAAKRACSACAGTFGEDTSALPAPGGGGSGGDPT

Row | CLint (human) ([1]; human microsomes) | CLint (rat) ([2]; rat microsomes) | CLint (mouse) [3] | IC50 [4] | microsomal CLint [1] | microsomal CLint [2] | microsomal CLint ([3]; mouse, liver microsomes, pH 7.4, mouse microsomes) | Compound | Anti-tumor efficacy in combination with irradiation [5]
1 | < 10 μl/min/mg protein | < 10 μl/min/mg protein | 103 μl/min/mg protein | 0.93 µM |  |  |  | COc1cc2ncc3c(c2cc1-c1cn(C)nc1C)n(-c1c(F)cncc1OC)c(=O)n3C (single isomer, unassigned) [Compound 2, 8-(1,3-Dimethyl-1H-pyrazol-4-yl)-1-(Ra)-(3-fluoro-5-methoxy-pyridin-4-yl)-7-methoxy-3-methyl-1,3-dihydro-imidazo[4,5-c]quinolin-2-one] | 
2 |  |  |  | 1.1 µM | 19 µL/min/mg | 19 µL/min/mg | 61 µL/min/mg | COc1cc2ncc3c(c2cc1-c1cn(C)nc1C)n(-c1c(F)cncc1OC)c(=O)n3C [Compound Y, 8-(1,3-dimethyl-1H-pyrazol-4-yl)-1-(3-fluoro-5-methoxypyridin-4-yl)-7-methoxy-3-methyl-1,3-dihydroimidazo[4,5-c]quinolin-2-one, reference compound] | 
3 |  |  | 22 μl/min/mg protein | 5.2 µM | < 10 µL/min/mg | < 10 µL/min/mg |  | COc1cc2ncc3c(c2cc1-c1cn(C)nc1C)n(-c1c(F)cncc1OC)c(=O)n3C (single isomer, unassigned) [Compound 1, 8-(1,3-Dimethyl-1H-pyrazol-4-yl)-1-(Sa)-(3-fluoro-5-methoxy-pyridin-4-yl)-7-methoxy-3-methyl-1,3-dihydro-imidazo[4,5-c]quinolin-2-one] | significant dose-dependent anti-tumor responses; also recorded: strongly enhanced the efficacy of IR (irradiation) in a dose-dependent manner; also recorded: strong tumor growth inhibition
